{
  "source": "paper PMC7616174",
  "about": "“Development of Novel 4-Arylpyridin-2-one and 6-Arylpyrimidin-4-one Positive Allosteric Modulators of the M1 Muscarinic Acetylcholine Receptor” (ChemMedChem, 2020)",
  "key": {"[1]": {"test": "in vivo", "conditions": "male, C57Bl/6 J, mouse, 10 mg/kg", "experimental": "(§1) The study was performed using 10–12 weeks old male C57Bl/6 J naïve mice in accordance with the Australian Code of Practice for the Care and Use of Animals for Scientific Purposes, with procedures approved by the Animal Ethics Committee of the Monash Institute of Pharmaceutical Sciences."}, "[2]": {"target": "T1, M1 mAChR (Homo sapiens, UniProt P11229)", "T1 construct": "expressed in transfected cells; host or cells: parental FlpIn CHO cells (transient, PEI)", "T1 sequence (P11229 1-460)": "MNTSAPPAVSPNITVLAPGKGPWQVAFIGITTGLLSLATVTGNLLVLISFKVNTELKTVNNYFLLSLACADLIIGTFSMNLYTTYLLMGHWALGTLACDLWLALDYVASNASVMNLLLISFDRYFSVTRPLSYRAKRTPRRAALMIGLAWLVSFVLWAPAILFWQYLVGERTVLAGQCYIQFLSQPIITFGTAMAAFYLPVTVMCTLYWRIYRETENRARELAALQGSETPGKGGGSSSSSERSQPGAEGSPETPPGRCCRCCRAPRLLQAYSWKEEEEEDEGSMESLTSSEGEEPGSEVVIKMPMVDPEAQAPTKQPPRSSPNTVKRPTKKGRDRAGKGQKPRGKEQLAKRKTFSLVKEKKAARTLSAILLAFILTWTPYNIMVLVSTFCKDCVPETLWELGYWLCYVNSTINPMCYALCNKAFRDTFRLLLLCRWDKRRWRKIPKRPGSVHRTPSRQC", "set-up": "method as in PMID 24051397", "conditions": "ref 10a; cited from earlier work"}, "[3]": {"target": "T2, hM1 mAChR (Homo sapiens, UniProt P11229)", "T2 construct": "expressed in transfected cells", "T2 sequence (P11229 1-460)": "T1 sequence (P11229 1-460)", "test": "IP1 accumulation assay (ACh concentration-response curves in absence or presence of modulator)", "format": "cell-based", "conditions": "for αβ (functional cooperativity with ACh) / τB (intrinsic efficacy of the modulator) / log τB (logarithm of intrinsic efficacy of the modulator) / log αβ (logarithm of functional cooperativity between ACh and modulator): IP1 accumulation; for αβ (functional cooperativity with ACh) / τB (intrinsic efficacy of the modulator): antilog, in parentheses; for log τB (logarithm of intrinsic efficacy of the modulator) / log αβ (logarithm of functional cooperativity between ACh and modulator): operational model; for log αβ (logarithm of functional cooperativity between ACh and modulator): pKB constrained to binding value; for activation at 1 µM: read-out: Δbaseline [1 μM]: change in basal response in presence of M1 PAM compared to control curve; for activation at 10 µM: read-out: Δbaseline [10 μM]: change in basal response in presence of M1 PAM compared to control curve"}, "[4]": {"test": "In vivo brain and plasma exposure in mice after IP administration", "conditions": "for cbrain, total concentration, 90 min post-dose / cplasma, total concentration, 90 min post-dose / cplasma, total concentration, 20 or 45 min post-dose: range n=3; for cbrain, total concentration, 20 or 45 min post-dose / cplasma, total concentration, 20 or 45 min post-dose: 20 min (10 mg/kg) for 2, 7f, 13c, 45 min (20 mg/kg) for BQCA; for cbrain, total concentration, 20 or 45 min post-dose: range in individual mice n=3", "experimental": "as §1"}, "[5]": {"conditions": "1 μM modulator, FlpIn CHO hM1 cells, mean ± SEM, 3 experiments"}, "[6]": {"conditions": "10 μM modulator, FlpIn CHO hM1 cells, mean ± SEM, 3 experiments"}, "[7]": {"conditions": "10 mg/kg (BQCA 20 mg/kg), range n=3, in parentheses"}, "[8]": {"conditions": "20 min (10 mg/kg) for 2, 45 min (20 mg/kg) for BQCA, range n=3, in parentheses"}},
  "note": "Where two headings read alike, the source gives them in different places.",
  "data": [
    {"smiles": "Cn1cc(-c2ccc(COc3ccccc3-c3cc(=O)n(C4CCCCC4O)cn3)cc2)cn1", "note": "(centres unmarked) [Compound 2, 3-(2-Hydroxycyclohexyl)-6-(2-((4-(1-methyl-1H-pyrazol-4-yl)benzyl)oxy)phenyl)pyrimidin-4(3H)-one]", "values": [
      {"measurement": "Kp", "setting": "[1]; brain/plasma, ip", "value": "< 0.1"},
      {"measurement": "Kp uu", "setting": "[1]; brain/plasma, ip", "value": "< 0.1"},
      {"measurement": "increase in binding cooperativity with ACh (αACh) compared to MIPS1650 (1)", "setting": "[2]", "value": "fourfold increase"},
      {"measurement": "increase in intrinsic efficacy (τB) compared to MIPS1650 (1)", "setting": "[2]", "value": 11, "unit": "fold"},
      {"measurement": "ΔpEC50 [1 μM]: change in ACh pEC50 in presence of M1 PAM compared to control curve", "setting": "[3]; [5]", "value": "1.52±0.14"},
      {"measurement": "ΔpEC50 [10 μM]: change in ACh pEC50 in presence of M1 PAM compared to control curve", "setting": "[3]; [6]", "value": "1.28±0.42"},
      {"measurement": "αβ (functional cooperativity with ACh)", "setting": "[3]", "value": 363},
      {"measurement": "τB (intrinsic efficacy of the modulator)", "setting": "[3]", "value": 6},
      {"measurement": "log τB (logarithm of intrinsic efficacy of the modulator)", "setting": "[3]", "value": "0.78±0.02"},
      {"measurement": "log αβ (logarithm of functional cooperativity between ACh and modulator)", "setting": "[3]", "value": "2.56±0.07"},
      {"measurement": "activation at 1 µM", "setting": "[3]", "value": "55.1 ± 2.4", "unit": "%"},
      {"measurement": "activation at 10 µM", "setting": "[3]", "value": "85.3 ± 2.4", "unit": "%"},
      {"measurement": "cbrain, total concentration, 90 min post-dose", "setting": "[4]; 10 mg/kg (BQCA 20 mg/kg)", "value": "0.0 to 0.1", "unit": "µM"},
      {"measurement": "cplasma, total concentration, 90 min post-dose", "setting": "[4]; 10 mg/kg (BQCA 20 mg/kg)", "value": "0.7 to 1.1", "unit": "µM"},
      {"measurement": "cbrain, unbound concentration, 90 min post-dose", "setting": "[4]; [7]", "value": 0.0, "unit": "µM"},
      {"measurement": "cplasma, unbound concentration, 90 min post-dose", "setting": "[4]; [7]", "value": 0.0, "unit": "µM"},
      {"measurement": "cbrain, total concentration, 20 or 45 min post-dose", "setting": "[4]", "value": "0.7 to 1.2", "unit": "µM"},
      {"measurement": "cplasma, total concentration, 20 or 45 min post-dose", "setting": "[4]", "value": "15.0 to 16.5", "unit": "µM"},
      {"measurement": "cbrain, unbound concentration, 20 or 45 min post-dose", "setting": "[4]; [8]", "value": 0.0, "unit": "µM"},
      {"measurement": "cplasma, unbound concentration, 20 or 45 min post-dose", "setting": "[4]; [8]", "value": 0.1, "unit": "µM"}
    ]},
    {"smiles": "Cn1cc(-c2ccc(COc3ncccc3-c3ccn(C4CCCCC4O)c(=O)c3)cc2)cn1", "note": "(centres unmarked) [Compound 7f, 1’-(2-Hydroxycyclohexyl)-2-((4-(1-methyl-1H-pyrazol-4-yl)benzyl)oxy)-[3,4’-bipyridin]-2’(1’H)-one]", "values": [
      {"measurement": "concentration at 90 min", "setting": "[1]; brain, intraperitoneal", "value": 100, "unit": "nM"},
      {"measurement": "ΔpEC50 [1 μM]: change in ACh pEC50 in presence of M1 PAM compared to control curve", "setting": "[3]; [5]", "value": "0.76±0.07"},
      {"measurement": "activation at 1 µM", "setting": "[3]; [5]", "value": "4.8 ± 1.9", "unit": "%"},
      {"measurement": "ΔpEC50 [10 μM]: change in ACh pEC50 in presence of M1 PAM compared to control curve", "setting": "[3]; [6]", "value": "1.41±0.10"},
      {"measurement": "activation at 10 µM", "setting": "[3]; [6]", "value": "20.5 ± 2.5", "unit": "%"},
      {"measurement": "αβ (functional cooperativity with ACh)", "setting": "[3]", "value": 316},
      {"measurement": "τB (intrinsic efficacy of the modulator)", "setting": "[3]", "value": 4},
      {"measurement": "log τB (logarithm of intrinsic efficacy of the modulator)", "setting": "[3]", "value": "0.56±0.05"},
      {"measurement": "log αβ (logarithm of functional cooperativity between ACh and modulator)", "setting": "[3]", "value": "2.50±0.08"},
      {"measurement": "cplasma, total concentration, 90 min post-dose", "setting": "[4]; 10 mg/kg (BQCA 20 mg/kg)", "value": "11.1–13.7 (n.a.) μM"},
      {"measurement": "cbrain, total concentration, 20 or 45 min post-dose", "setting": "[4]", "value": "0.3–0.4 (n.a.) μM"},
      {"measurement": "cplasma, total concentration, 20 or 45 min post-dose", "setting": "[4]", "value": "31.8–40.7 (n.a.) μM"}
    ]},
    {"smiles": "CN(C)C(=O)Cn1ccc(-c2ccccc2OCc2ccc(-c3cnn(C)c3)cc2)cc1=O", "note": "[Compound 13c, N,N-Dimethyl-2-(4-(2-((4-(1-methyl-1H-pyrazol-4-yl)benzyl)oxy)phenyl)-2-oxopyridin-1(2H)-yl)acetamide]", "values": [
      {"measurement": "ΔpEC50 [1 μM]: change in ACh pEC50 in presence of M1 PAM compared to control curve", "setting": "[3]; [5]", "value": "0.73±0.08"},
      {"measurement": "activation at 1 µM", "setting": "[3]; [5]", "value": "2.1 ± 2.1", "unit": "%"},
      {"measurement": "ΔpEC50 [10 μM]: change in ACh pEC50 in presence of M1 PAM compared to control curve", "setting": "[3]; [6]", "value": "1.33±0.17"},
      {"measurement": "activation at 10 µM", "setting": "[3]; [6]", "value": "63.6 ± 2.3", "unit": "%"},
      {"measurement": "αβ (functional cooperativity with ACh)", "setting": "[3]", "value": 118},
      {"measurement": "τB (intrinsic efficacy of the modulator)", "setting": "[3]", "value": 3},
      {"measurement": "log τB (logarithm of intrinsic efficacy of the modulator)", "setting": "[3]", "value": "0.45±0.03"},
      {"measurement": "log αβ (logarithm of functional cooperativity between ACh and modulator)", "setting": "[3]", "value": "2.07±0.08"},
      {"measurement": "cbrain, total concentration, 90 min post-dose", "setting": "[4]; 10 mg/kg (BQCA 20 mg/kg)", "value": "n.q."},
      {"measurement": "cplasma, total concentration, 90 min post-dose", "setting": "[4]; 10 mg/kg (BQCA 20 mg/kg)", "value": "4.9–5.4 (n.a.) μM"},
      {"measurement": "cbrain, total concentration, 20 or 45 min post-dose", "setting": "[4]", "value": "n.q."},
      {"measurement": "cplasma, total concentration, 20 or 45 min post-dose", "setting": "[4]", "value": "25.3–46.5 (n.a.) μM"}
    ]}
  ]
}
